Reference: patent US20250325552A1, “SUBSTITUTED THIADIAZOLYL DERIVATIVES AS DNA POLYMERASE THETA INHIBITORS” (IDEAYA Biosciences, Inc., priority 2020, published 2025)

Target: Polθ theta (1-899) (hPolQ) (Homo sapiens (Human), UniProt O75417)
Experiment: Biological Assay 2: Polθ ATPase activity, NADH oxidation-coupled enzymatic assay (5 nM enzyme, 120 min)
Type: biochemical
Details: Polθ (1-899) 5 nM, 100 μM ATP, 300 nM dT50 ssDNA; Examples 269 to 271; read-out: ATPase NADH coupling:Standard Screening:hPolQ IC50
Method: The ability of the compounds (Example 269 to Example 271) of described herein to inhibit ATPase activity of Polθ theta (1-899) was determined using the assay described below.
Polθ Theta ATPase activity was determined by measuring the rate of ATP turn over in a NADH oxidation-coupled enzymatic assay. 11-point dilution series of compounds were used in a 384 well format for the inhibition assays. Polθ theta (1-899) (5 nM) in assay buffer (20 mM Tris HCl (pH 7.80), 80 mM KCl, 10 mM MgCl2, 1 mM DTT, 0.01% BSA, 0.01% Tween, 5% glycerol) was transferred to the test wells (20 μL), except the low control wells (20 μL of assay buffer was added to the low control wells). The plate was then incubated at room temperature for 15 min. An equal volume (20 μL) of 100 μM ATP, 300 nM dT50 (single-stranded DNA (ssDNA) containing 50 thymine bases), 300 μM NADH, 6 mM PEP, 10 U/mL lactate dehydrogenase and U/mL pyruvate kinase in assay buffer was added to all the test wells. The plate was then centrifuged at 1000 rpm for 1 min. The reaction was monitored for 120 min by measuring absorbance (λ=340 nm) in a PHERAstar FSX multimode plate reader every 3 minute. The high control (DMSO with enzyme) with low absorbance intensity represents no inhibition of ATPase reaction while the low control (DMSO with buffer) with high absorbance intensity represents full inhibition of ATPase activity. Slope of the reaction progress curves were used to calculate the rate of ATP hydrolysis. The rates were used to determine the percent inhibition using a four-parameter inhibition model to generate IC50, Hill slope and max inhibition.

Polθ theta (1-899) (hPolQ), sequence (O75417 1-899): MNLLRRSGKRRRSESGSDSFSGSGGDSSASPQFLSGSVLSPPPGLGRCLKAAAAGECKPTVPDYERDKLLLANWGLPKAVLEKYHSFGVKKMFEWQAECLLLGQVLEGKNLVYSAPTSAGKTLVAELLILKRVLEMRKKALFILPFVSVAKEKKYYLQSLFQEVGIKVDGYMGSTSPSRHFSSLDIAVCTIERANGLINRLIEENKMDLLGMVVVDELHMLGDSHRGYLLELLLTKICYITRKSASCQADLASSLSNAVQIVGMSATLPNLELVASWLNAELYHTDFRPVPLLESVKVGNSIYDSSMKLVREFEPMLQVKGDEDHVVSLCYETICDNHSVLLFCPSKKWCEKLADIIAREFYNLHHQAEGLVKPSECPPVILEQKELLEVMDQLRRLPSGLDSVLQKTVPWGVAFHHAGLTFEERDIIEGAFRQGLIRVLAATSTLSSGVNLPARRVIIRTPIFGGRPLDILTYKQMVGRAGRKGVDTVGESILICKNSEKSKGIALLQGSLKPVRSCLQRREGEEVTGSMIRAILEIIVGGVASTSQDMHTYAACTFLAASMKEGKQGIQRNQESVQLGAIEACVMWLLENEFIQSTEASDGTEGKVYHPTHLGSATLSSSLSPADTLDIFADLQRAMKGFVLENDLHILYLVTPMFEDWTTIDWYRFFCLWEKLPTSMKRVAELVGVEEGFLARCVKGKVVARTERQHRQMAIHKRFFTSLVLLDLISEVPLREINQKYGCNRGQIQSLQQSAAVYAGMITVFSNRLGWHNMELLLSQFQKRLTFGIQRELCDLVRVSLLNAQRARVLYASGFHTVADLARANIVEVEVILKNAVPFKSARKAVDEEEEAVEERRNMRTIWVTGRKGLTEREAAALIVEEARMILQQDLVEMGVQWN

| SMILES | IC50 |
| --- | --- |
| COc1cnc(Cl)cc1-c1cc(C)ncc1C(=O)Nc1nnc(OCC2(F)CN(C)C2)s1 [Example 269, 2′-chloro-N-(5-((3-fluoro-1-methylazetidin-3-yl)methoxy)-1,3,4-thiadiazol-2-yl)-5′-methoxy-6-methyl-(4,4′-bipyridine)-3-carboxamide] | ≤ 200 nM |
| COc1cnc(Cl)cc1-c1cc(C)ncc1C(=O)Nc1nnc(OC[C@@H]2CCN(C(C)=O)C2)s1 [Example 270, (R)—N-(5-((1-acetylpyrrolidin-3-yl)methoxy)-1,3,4-thiadiazol-2-yl)-2′-chloro-5′-methoxy-6-methyl-(4,4′-bipyridine)-3-carboxamide] | 1000 to 10000 nM |
| COc1cnc(Cl)cc1-c1cc(C)ncc1C(=O)Nc1nnc(OCC(C)(C)N2CCNC2=O)s1 [Example 271, 2′-chloro-5′-methoxy-6-methyl-N-(5-(2-methyl-2-(2-oxoimidazolidin-1-yl)propoxy)-1,3,4-thiadiazol-2-yl)-(4,4′-bipyridine)-3-carboxamide] | ≤ 200 nM |
